Columns and labels:
Xaa-Pro dipeptidase [1] = target: T1, Xaa-Pro dipeptidase (Homo sapiens, UniProt P12955); assay: Competitive inhibition of prolidase (unknown origin) in erythrocytes assessed as inhibition constant
T1 sequence (P12955 whole entry): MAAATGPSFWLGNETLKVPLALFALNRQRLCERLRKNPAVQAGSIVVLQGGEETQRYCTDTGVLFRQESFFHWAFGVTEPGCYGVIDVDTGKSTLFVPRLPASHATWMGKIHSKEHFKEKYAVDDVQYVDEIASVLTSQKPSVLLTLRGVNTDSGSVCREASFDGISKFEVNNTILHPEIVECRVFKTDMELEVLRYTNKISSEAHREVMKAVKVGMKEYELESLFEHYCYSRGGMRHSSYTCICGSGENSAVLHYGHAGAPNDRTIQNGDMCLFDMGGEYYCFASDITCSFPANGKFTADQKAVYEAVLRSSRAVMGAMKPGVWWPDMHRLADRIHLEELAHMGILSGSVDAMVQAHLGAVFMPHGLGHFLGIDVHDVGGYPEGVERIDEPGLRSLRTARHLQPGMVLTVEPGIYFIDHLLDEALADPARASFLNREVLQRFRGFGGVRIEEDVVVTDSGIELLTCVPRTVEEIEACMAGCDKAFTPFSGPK

MCF7 = assay: Cytotoxicity against human MCF7 cells assessed as reduction in cell viability measured for 72 hrs by MTT assay; settings: MCF7, 72 h
MDA-MB-231 = assay: Cytotoxicity against human MDA-MB-231 cells assessed as reduction in cell viability measured for 72 hrs by MTT assay; settings: MDA-MB-231, 72 h
SK-MEL-5 = assay: cells; settings: Homo sapiens, SK-MEL-5, 48 h
Description: Growth inhibition of human SK-MEL-5 cells after 48 hrs by sulforhodamine B assay

Xaa-Pro dipeptidase [2] = target: T1, Xaa-Pro dipeptidase; assay: Inhibition of prolidase (unknown origin)

NC(=O)Nc1ccc(O)cc1
Ki (Xaa-Pro dipeptidase [1]): 9.73 µM

O=NN(CCCl)C(=O)N1CCC[C@H]1C(=O)O
IC50 (MCF7): 102 µM
IC50 (MDA-MB-231): 88 µM

N[C@@H](Cc1ccc(N(CCCl)CCCl)cc1)C(=O)O
GI50 (SK-MEL-5): 74.8 µM

COc1cccc2c1C(=O)c1c(O)c3c(c(O)c1C2=O)C[C@@](O)(C(C)=O)C[C@@H]3O[C@H]1C[C@H](N)[C@H](O)[C@H](C)O1 [DAUNORUBICIN]
IC50 (Xaa-Pro dipeptidase [2]): 0.3 µM

COc1cccc2c1C(=O)c1c(O)c3c(c(O)c1C2=O)C[C@@](O)(C(=O)CO)C[C@@H]3O[C@H]1C[C@H](N)[C@H](O)[C@H](C)O1 [DOXORUBICIN]
IC50 (Xaa-Pro dipeptidase [2]): 10 µM
